Consider 38 compounds from US20220324865A1 (Bayer Aktiengesellschaft, priority 2018, published 2022).

Counter-ions that a name gives are not always drawn.

This assay concerns the target T1, human EP3 receptor (Homo sapiens, UniProt P43115).
T1 construct: expressed in transfected cells; host or cells: CHO K1 (Chinese Hamster Ovary), stably co-transfected with Galpha16 and mitochondrial clytin
T1 sequence (P43115 1-390): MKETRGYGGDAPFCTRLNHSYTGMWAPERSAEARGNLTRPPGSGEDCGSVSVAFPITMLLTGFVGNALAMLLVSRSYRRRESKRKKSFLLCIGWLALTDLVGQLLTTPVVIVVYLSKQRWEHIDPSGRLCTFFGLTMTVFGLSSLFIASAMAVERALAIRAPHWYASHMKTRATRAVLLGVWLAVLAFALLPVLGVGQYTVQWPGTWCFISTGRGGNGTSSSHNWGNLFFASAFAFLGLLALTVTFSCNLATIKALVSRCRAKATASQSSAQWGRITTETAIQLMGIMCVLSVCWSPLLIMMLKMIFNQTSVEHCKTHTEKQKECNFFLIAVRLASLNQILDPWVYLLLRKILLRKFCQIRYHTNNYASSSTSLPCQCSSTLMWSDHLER
The assay can be described thus: Cellular in vitro assay for determining EP3 receptor activity (human EP3 cell line, sulprostone-stimulated calcium luminescence). The note with it: CHO cells expressing human EP3 and mitochondrial Clytin; antagonist mode, sulprostone at EC50; read-out: EP3 CHO mtCLY ANTAG IC50. It is filed as cell-based. In short, it runs like this: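 CHO K1 cells stably expressing human EP3 with Gα16 and mitochondrial Clytin, loaded overnight with coelenterazine. Compounds added 10 min before sulprostone at its EC50; antagonism read immediately as reduced calcium-driven luminescence, quadruplicate points.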
In general, IC50 refers to the concentration that inhibits the measured activity by half. In the case of `COc1cccc(C(CCO)NC(=O)c2nn3c(C)c(-c4ccc5ccccc5c4)[nH]c(=O)c3c2C)c1` (centres unmarked) [Example 3-39, N-[3-Hydroxy-1-(3-methoxyphenyl)propyl]-3,7-dimethyl-6-(2-naphthyl)-4-oxo-5H-pyrazolo[1,5-a]pyrazine-2-carboxamide], the concentration for half-maximal inhibition (IC50) is 1.8 nM.

Take `CC(C)[C@@H](C)NC(=O)c1nn2cc(-c3ccc4ccccc4c3)[nH]c(=O)c2c1C(F)(F)F` [6-512]: the IC50 turned out to be 0.95 nM.

As for `CC(C)C(NC(=O)c1nn2cc(-c3ccc4ccccc4c3)[nH]c(=O)c2c1C#N)c1ccc(F)cc1` (centres unmarked) [Example 3-59, 3-Cyano-N-[1-(4-fluorophenyl)-2-methylpropyl]-6-(2-naphthyl)-4-oxo-5H-pyrazolo[1,5-a]pyrazine-2-carboxamide], the IC50 turned out to be 1.25 nM.

For the compound `Cc1cc(-c2cn3nc(C(=O)NC(C)c4ccccc4OC(F)F)cc3c(=O)[nH]2)ccc1C(F)(F)F` (centres unmarked) [6-33], the IC50 came out at 8.15 nM.

For the compound `CC[C@@H](C)NC(=O)c1nn2cc(-c3ccc(C(F)(F)F)c(C)c3)[nH]c(=O)c2c1C1CC1` [Example 1-138, N-[(2R)-Butan-2-yl]-3-cyclopropyl-6-[3-methyl-4-(trifluoromethyl)phenyl]-4-oxo-4,5-dihydropyrazolo[1,5-a]pyrazine-2-carboxamide], the IC50 was 6.85 nM.

For the compound `O=C(NC(CCO)c1ccc(F)cc1)c1cc2c(=O)[nH]c(-c3ccc4cccnc4c3)cn2n1` (centres unmarked) [Example 1-62, N-[1-(4-Fluorophenyl)-3-hydroxpropyl]-4-oxo-6-(7-quinolyl)-5H-pyrazolo[1,5-a]pyrazine-2-carboxamide], the IC50 is 3.6 nM.

Consider `CCC(NC(=O)c1cc2c(=O)[nH]c(-c3ccc4ccccc4c3)cn2n1)C(F)(F)F` (centres unmarked) [6-61], for which the IC50 was determined as 4.13 nM.

`CCN1CC(NC(=O)c2cc3c(=O)[nH]c(-c4ccc5ccccc5c4)cn3n2)(c2ccc(F)cc2)C1` [Example 1-145, N-[3-(4-Fluorophenyl)-1-ethylazetidin-3-yl]-6-(naphthalen-2-yl)-4-oxo-4,5-dihydropyrazolo[1,5-a]-pyrazine-2-carboxamide formic acid salt]: the IC50 came to 7.05 nM.

In the case of `Cc1ccc2c(c1)C(NC(=O)c1nn3cc(-c4cnc5cccc(C)c5c4)[nH]c(=O)c3c1C(C)C)CC(C)(C)O2` (centres unmarked) [Example 4-84, 3-Isopropyl-6-(5-methylquinolin-3-yl)-4-oxo-N-(2,2,6-trimethyl-3,4-dihydro-2H-chromen-4-yl)-4,5-dihydropyrazolo[1,5-a]pyrazine-2-carboxamide], the IC50 was 6.95 nM.

As to `CC(C)(O)[C@@H](NC(=O)c1nn2cc(-c3cc(Cl)c(Cl)cc3F)[nH]c(=O)c2c1C1CC1)c1ccc(F)cc1` [6-583], the IC50 is 0.63 nM.

For the compound `Cc1cc(-c2cn3nc(C(=O)NC4(c5ccc(F)cc5)CN(C)C4)c(C(C)C)c3c(=O)[nH]2)ccc1Cl` [6-607], the IC50 was 2.95 nM.

In the case of `CC(C)(O)[C@@H](NC(=O)c1cc2c(=O)[nH]c(-c3ccc4ccccc4c3)cn2n1)c1ccccc1` [Example 1-3, N-[(1S)-2-Hydroxy-2-methyl-1-phenylpropyl]-6-(naphthalen-2-yl)-4-oxo-4,5-dihydropyrazolo-[1,5-a]pyrazine-2-carboxamide], the IC50 amounted to 0.653 nM.

As for `Cc1ccc(-c2cn3nc(C(=O)NC4(c5ccc(F)cc5)CCN(C)C4)cc3c(=O)[nH]2)cc1C` (single isomer, unassigned) [6-363], the IC50 turned out to be 46 nM.

As for `CC[C@@H](NC(=O)c1nn2cc(-c3cnc4cccc(C)c4c3)[nH]c(=O)c2c1C(C)C)c1ccccc1` [Example 4-49, 6-(5-Methylquinolin-3-yl)-4-oxo-N-[(1R)-1-phenylpropyl]-3-(propan-2-yl)-4,5-dihydropyrazolo[1,5-a]pyrazine-2-carboxamide], the IC50 was 3.95 nM.

`Cc1ccc(-c2cn3nc(C(=O)NC(C)CN4CCOCC4)c(C4CC4)c3c(=O)[nH]2)cc1C` (single isomer, unassigned) [6-451]: the IC50 turned out to be 5.35 nM.

Take `Cc1ccc(-c2cn3nc(C(=O)N[C@@H](C)C4CC4)c(C(F)(F)F)c3c(=O)[nH]2)cc1Cl` [6-164]: the IC50 worked out at 1.04 nM.

For the compound `C[C@@H](NC(=O)c1cc2c(=O)[nH]c(-c3ccc4ccccc4n3)cn2n1)c1ccc(F)cc1` [Example 1-105, N-[(1R)-1-(4-Fluorophenyl)ethyl]-4-oxo-6-(quinolin-2-yl)-4,5-dihydropyrazolo[1,5-a]pyrazine-2-carboxamide], the IC50 turned out to be 1.48 nM.

Consider `Cc1ccc(-c2cn3nc(C(=O)NC(CN(C)C)c4ccc(F)cc4)c(C4CC4)c3c(=O)[nH]2)cc1C` (single isomer, unassigned) [6-446], for which the IC50 turned out to be 8.05 nM.

`CCn1cc(CNC(=O)c2nn3c(C)c(-c4ccc5ccccc5c4)[nH]c(=O)c3c2C)c(C)n1` [Example 3-14, N-[(1-Ethyl-3-methyl-1H-pyrazol-4-yl)methyl]-3,7-dimethyl-6-(naphthalen-2-yl)-4-oxo-4,5-dihydropyrazolo[1,5-a]pyrazine-2-carboxamide]: the IC50 stood at 1.25 nM.

As for `C[C@@H](NC(=O)c1cc2c(=O)[nH]c(-c3ccc4c(c3)ncn4C)cn2n1)c1ccc(F)cc1` [6-660], the IC50 is 3 nM.

For `COC[C@H](NC(=O)c1nn2cc(-c3ccc(Cl)c(C)c3)[nH]c(=O)c2c1C1CC1)c1ccccc1` [6-304], the half-inhibitory concentration (IC50) was 0.65 nM.

As for `Cc1ccc(-c2[nH]c(=O)c3c(C4CC4)c(C(=O)N[C@@H](c4ccc(F)cc4)C(C)(C)O)nn3c2C#N)cc1C` [6-617], the IC50 worked out at 7.65 nM.

As to `Cc1c(C(=O)NC(CCO)c2ccccc2Cl)nn2c(C)c(-c3ccc4ccccc4c3)[nH]c(=O)c12` (centres unmarked) [Example 3-68, N-[1-(2-Chlorophenyl)-3-hydroxypropyl]-3,7-dimethyl-6-(2-naphthyl)-4-oxo-5H-pyrazolo[1,5-a]pyrazine-2-carboxamide], the IC50 came to 1.85 nM.

Take `O=C(N[C@H](CCO)c1ccc(F)cc1)c1nn2cc(-c3cccc(Cl)c3)[nH]c(=O)c2c1C1CC1` [6-679]: the IC50 stood at 1.09 nM.

Regarding `Cc1c(C(=O)NC(CO)c2cc(Cl)cc(Cl)c2)nn2c(C)c(-c3ccc4ccccc4c3)[nH]c(=O)c12` (centres unmarked) [Example 3-40, N-[1-(3,5-Dichlorophenyl)-2-hydroxyethyl]-3,7-dimethyl-6-(2-naphthyl)-4-oxo-5H-pyrazolo[1,5-a]pyrazine-2-carboxamide], the IC50 is 7.6 nM.

In the case of `COc1ccc(-c2cn3nc(C(=O)N[C@@H](c4ccc(F)cc4)C(F)(F)CO)c(C4CC4)c3c(=O)[nH]2)cc1F` [6-586], the IC50 worked out at 1.35 nM.

`CC[C@@H](C)NC(=O)c1nn2cc(-c3ccc(C)c(Cl)c3)[nH]c(=O)c2c1C1CC1` [6-271]: the IC50 was found to be 0.87 nM.

For `C[C@H](NC(=O)c1nn2cc(-c3ccc4ccccc4c3)[nH]c(=O)c2c1C#N)c1ccccc1` [Example 3-46, 3-Cyano-6-(naphthalen-2-yl)-4-oxo-N-[(1S)-1-phenylethyl]-4,5-dihydropyrazolo[1,5-a]pyrazine-2-carboxamide], the IC50 worked out at 3.2 nM.

With `COc1ccc(CCNC(=O)c2cc3c(=O)[nH]c(-c4ccc5c(c4)OCCO5)cn3n2)cc1OC` [6-77], the IC50 was 2.28 nM.

Regarding `Cc1c(C(=O)NC(C)CC2CC2)nn2c(C)c(-c3ccc4ccccc4c3)[nH]c(=O)c12` (centres unmarked) [Example 3-10, N-(1-Cyclopropylpropan-2-yl)-3,7-dimethyl-6-(2-naphthyl)-4-oxo-4,5-dihydropyrazolo[1,5-a]pyrazine-2-carboxamide], the IC50 came out at 2.75 nM.

As for `Cc1cccc2ncc(-c3cn4nc(C(=O)NC(C)c5ccc(S(C)(=O)=O)cc5)c(C(C)C)c4c(=O)[nH]3)cc12` (centres unmarked) [Example 4-61, 3-Isopropyl-6-(5-methyl-3-quinolyl)-N-[1-(4-methylsulfonylphenyl)ethyl]-4-oxo-5H-pyrazolo[1,5-a]pyrazine-2-carboxamide], the 50% inhibitory concentration (IC50) is 1.8 nM.

On to `Cc1ccc(-c2cn3nc(C(=O)NC(c4ccc(F)cc4)C4(O)CC4)c(C4CC4)c3c(=O)[nH]2)cc1F` (single isomer, unassigned) [6-383], for which the IC50 is 1.6 nM.

Consider `Cc1cc(-c2cn3nc(C(=O)NC(c4ccc(F)cc4)C4(O)CC4)c(C(F)(F)F)c3c(=O)[nH]2)ccc1Cl` (single isomer, unassigned) [6-211], for which the IC50 turned out to be 1.18 nM.

As for `Cc1cc(C)n(C(CNC(=O)c2cc3c(=O)[nH]c(-c4ccc5ccccc5c4)cn3n2)C(C)C)n1` (centres unmarked) [Example 2-19, N-[2-(3,5-Dimethyl-1H-pyrazol-1-yl)-3-methylbutyl]-6-(2-naphthyl)-4-oxo-4,5-dihydropyrazolo[1,5-a]pyrazine-2-carboxamide], the IC50 worked out at 7.9 nM.

For `Cc1c(C(=O)N[C@H](C)c2ccc(F)cc2)nn2c(C)c(-c3ccc4ccccc4c3)[nH]c(=O)c12` [Example 1-23, N-[(1R)-1-(4-Fluorophenyl)ethyl]-3,7-dimethyl-6-(naphthalen-2-yl)-4-oxo-4,5-dihydropyrazolo-[1,5-a]pyrazine-2-carboxamide], the IC50 came to 5.55 nM.

As to `Cc1ccc(-c2cn3nc(C(=O)NC(CO)c4ccc(F)cc4)c(C(F)(F)F)c3c(=O)[nH]2)cc1Cl` (single isomer, unassigned) [6-156], the IC50 is 1.3 nM.

Turning to `Cc1cc(-c2cn3nc(C(=O)N[C@H](C)C4CC4)c(C(F)(F)F)c3c(=O)[nH]2)ccc1Cl` [6-218], the IC50 is 1.95 nM.

In the case of `CCn1nccc1CNC(=O)c1nn2c(C)c(-c3ccc4ccccc4c3)[nH]c(=O)c2c1C` [Example 1-68, N-[(1-Ethyl-1H-pyrazol-5-yl)methyl]-3,7-dimethyl-6-(naphthalen-2-yl)-4-oxo-4,5-dihydropyrazolo-[1,5-a]pyrazine-2-carboxamide], the IC50 was 1.42 nM.
